Where “and” joins values, the source holds several entries; their conditions need not be identical. Identical values can stand only once. Marks after values point to notes of the source that are not given here.
Legend:
[1] = test system: Lewis lung carcinoma (LLC); assay: In vivo anticancer activity toward Lewis lung carcinoma; set-up: species or system C57BL mice; details: daily dose i.p. 1.5 mg kg^−1 from day 9; day 15
Description: All studies involving animal testing were carried out in accordance with the ethical guidelines for animal research adopted by the University of Padua, acknowledging the Italian regulation and the European Directive 86/609/EEC as to animal welfare and protection and the related codes of practice. The mice were purchased from Charles River, Italy, and housed in steel cages under controlled environmental conditions (constant temperature, humidity, and 12 h dark/light cycle) and alimented with commercial standard feed and tap water ad libitum. Animals were observed daily, and body weight and food intake recorded. The Lewis lung carcinoma (LLC) cell line was purchased from ECACC, UK. The LLC cell line was maintained in D-MEM (Euroclone) supplemented with 10% heat-inactivated FBS (Euroclone), 10 mM L-glutamine, 100 U mL^−1 penicillin, and 100 μg mL^−1 streptomycin in a 5% CO2 air incubator at 37° C.
The Lewis lung carcinoma (LLC) was implanted i.m. as a 2×10^6 cell inoculum into the right hind leg of 8-week old male and female C57BL mice (24±3 g body weight). […] At day 15, animals were sacrificed, the legs were amputated at the proximal end of the femur, and the inhibition of tumor growth was determined according to the difference in weight of the tumor-bearing leg and the healthy leg of the animals expressed as % referred to the control animals. Body weight was measured every two days and was taken as a parameter for systemic toxicity.
All the values are the means±S.D. of not less than three measurements. Multiple comparisons were made by Tukey-Kramer test (**p<0.01; *p or °p<0.05).
The in vivo antitumor activity of compound 1 was evaluated in a model of solid tumor, the syngeneic murine Lewis lung carcinoma (LLC). […] For the assessment of the adverse side effects, changes in body weights of tumor-bearing mice were monitored daily (FIG. 3).

[2] = test system: C13* cisplatin resistant ovarian cancer cells; assay: MTT cytotoxicity assay, cross-resistance profile; type: cell-based, human; details: for IC50: C13*, 72 h, MTT; for R.F. (resistance factor): IC50 C13* / IC50 2008, cross-resistance with cisplatin
Description: (§1) Human breast (MCF-7) and colon (HCT-15, DDL1, SW480 and CaCo-2) carcinoma cell lines along with melanoma (A375) were obtained from the American Type Culture Collection (ATCC, Rockville, Md.). A431 are human cervical carcinoma cells kindly provided by Prof. F. Zunino (Molecular Pharmacology Unit, Experimental Oncology and Molecular Medicine, Istituto Nazionale dei Tumori, Milan, Italy). […] G. Marverti (Dept. of Biomedical Science, University of Modena, Italy). LoVo human colon-carcinoma cell line and its multidrug-resistant sublime (LoVo MDR) were kindly provided by Prof F. Maj one (Department of Biology of Padova University, Italy). […] Cell lines were maintained in the logarithmic phase at 37° C. in a 5% carbon dioxide atmosphere using the following culture media containing 10% fetal calf serum (Euroclone, Milan, Italy), antibiotics (50 units mL^−1 penicillin and 50 μg mL^−1 streptomycin), and 2 mM L-glutamine in: i) RPMI-1640 medium (Euroclone) for MCF-7, HCT-15, A431, DLD 1, 2008, and C13* cells; ii) F-12 HAM'S (Sigma Chemical Co.) for LoVo, LoVo MDR, and LoVo-OXP cells; iii) DMEM for A375 and SW 480 cells; and iv) MEM for CaCo-2 cells.
(§2) The growth inhibitory effect towards tumor cell lines was evaluated by means of the MTT (3-(4,5-dimethylthiazol-2-yl)-2,5-diphenyltetrazolium bromide) assay (Alley, M. C., et al., Cancer Res. 1988, 48, 589-601).
(§3) Briefly, depending upon the growth characteristics of the cell line, 3-8×10^3 cells well^−1, were seeded in 96-well microplates in growth medium (100 μL) and then incubated at 37° C. in a 5% carbon dioxide atmosphere. After 24 h, the medium was removed and replaced with a fresh one containing the compound to be studied, at the appropriate concentration, dissolved in 0.9% sodium chloride solution just before use. Triplicate cultures were established for each treatment. After 72 h, each well was treated with […] of a 5 mg mL^−1 MTT saline solution and, after 5 h of incubation, 100 μL of a sodium dodecylsulfate (SDS) solution in 0.01 M HCl were added. After an overnight incubation, the inhibition of cell growth induced by the tested complexes was determined by measuring the absorbance of each well at 570 nm using a BioRad 680 microplate reader. Mean absorbance for each drug dose was expressed as percentage of the control and plotted vs. drug concentration. Dose-response curves were fitted and IC50 values were calculated with four parameter logistic model (4PL).
(§4) A LoVo cell line retaining a multidrug resistance phenotype was also considered (LoVo MDR). Cross-resistance profiles were evaluated by means of the resistance factor (RF), which is defined as the ratio between the IC50 value for the resistant cells and that arising from the sensitive cells (Table 2).

[3] = test system: LoVo-OXP oxaliplatin resistant colon cancer cells; assay: MTT cytotoxicity assay, cross-resistance profile; type: cell-based, human; details: for R.F. (resistance factor): IC50 LoVo-OXP / IC50 LoVo, cross-resistance with oxaliplatin; for IC50: LoVo-OXP, 72 h, MTT
Description: as §1, §2, §3, §4

[4] = test system: 2008 ovarian cancer cells; assay: MTT cytotoxicity assay, cross-resistance profile; type: cell-based, human; details: 72 h
Description: as §1, §2, §3, §4

LoVo colon cancer cells = assay: MTT cytotoxicity assay, cross-resistance profile; type: cell-based, human; details: 72 h
Description: Human breast (MCF-7) and colon (HCT-15, DDL1, SW480 and CaCo-2) carcinoma cell lines along with melanoma (A375) were obtained from the American Type Culture Collection (ATCC, Rockville, Md.). A431 are human cervical carcinoma cells kindly provided by Prof. F. Zunino (Molecular Pharmacology Unit, Experimental Oncology and Molecular Medicine, Istituto Nazionale dei Tumori, Milan, Italy). […] G. Marverti (Dept. of Biomedical Science, University of Modena, Italy). LoVo human colon-carcinoma cell line and its multidrug-resistant sublime (LoVo MDR) were kindly provided by Prof F. Maj one (Department of Biology of Padova University, Italy).
as §2, §3, §4

[5] = test system: LoVo MDR multidrug resistant colon carcinoma subline; assay: MTT cytotoxicity assay, cross-resistance profile; type: cell-based, human; details: for R.F. (resistance factor): IC50 LoVo-MDR / IC50 LoVo; for IC50: LoVo-MDR, 72 h, MTT
Description: as §1, §2, §3, §4
In Table 2 are also reported the results obtained in a multidrug resistant (MDR) colon carcinoma subline, LoVo MDR, in which the resistance to doxorubicin, a drug belonging to the MDR spectrum, is associated with an overexpression of multi-specific drug transporters, such as the 170 kDa P-glycoprotein (P-gp) (Wersinger, C., et al., Amino Acids 2000, 19, 667-685). It is well known that acquired MDR, whereby cells become refractory to multiple drugs, poses most important challenge to the success of anticancer chemotherapy.

A375 = assay: MTT cytotoxicity assay, 72 h; type: cell-based, human; details: A375, skin
Description: as §1, §2, §3
(§5) Compound 1 was prepared for the first time almost twenty years ago however, until now, it had been tested (both in vitro and in vivo) only in a limited number of tumor cell lines (Hoeschele, J. D., et al., J. Med. Chem. 1994, 37, 2630-2636 and Shamsuddin, S., et al., J. Inorg. Biochem. 1996, 61, 291-301). The Pt(II) and Pt(IV) complexes containing isomeric forms of diaminocyclohexane, [PtCl2(cis-1,4-DACHA](1), [PtCl2(1R,2R-DACH)] (2), [Pt(OXA)(cis-1,4-DACH)] (3), cis,trans,cis-[Pt^IVCl2(OH)2(cis-1,4-DACH)] (4), cis,trans,cis-[Pt^IVCl2(DCA)2(cis-1,4-DACH)] (5), [Pt(CBDCA)(cis-1,4-DACH)] (6), cis,trans,cis-[Pt^IV(OXA)(OH)2(cis-1,4-DACH)] (7), and cis,trans,cis-[Pt^IV(OXA)(DCA)2(cis-1,4-DACH)] (8) were evaluated for their cytotoxic activity towards a panel of human tumor cell lines including cervical (A431), breast (MCF-7), cancers along with a melanoma (A375) and 4 different colon cancer cell lines corresponding to different stages of the disease progression (HCT-15, SW480, CaCo-2, DLD-1). The cytotoxicity was evaluated by means of the MTT test for 72 h treatment with increasing concentrations of the tested compounds.

HCT-15 = assay: MTT cytotoxicity assay, 72 h; type: cell-based, human; details: HCT-15, colon
Description: as §1, §2, §3, §5

MCF-7 = assay: MTT cytotoxicity assay, 72 h; type: cell-based, human; details: MCF-7, breast
Description: as §1, §2, §3, §5

SW480 = assay: MTT cytotoxicity assay, 72 h; type: cell-based, human; details: SW480, colon
Description: as §1, §2, §3, §5

DLD-1 = assay: MTT cytotoxicity assay, 72 h; type: cell-based, human; details: DLD-1, colon
Description: as §1, §2, §3, §5

A431 = assay: MTT cytotoxicity assay, 72 h; type: cell-based, human; details: A431, cervix
Description: as §1, §2, §3, §5

[6] = test system: panel of human tumor cell lines (A431, MCF-7, A375, HCT-15, SW480, CaCo-2, DLD-1); assay: MTT cytotoxicity, comparison over the Table 1 panel; type: cell-based; details: average over seven cell lines of Table 1
Description: as §3, with “After” for “Briefly, depending upon the growth characteristics of the cell line, 3-8×10^3 cells well^−1, were seeded in 96-well microplates in growth medium (100 μL) and then incubated at 37° C. in a 5% carbon dioxide atmosphere. After”
The cytotoxicity was evaluated by means of the MTT test for 72 h treatment with increasing concentrations of the tested compounds.

[7] = test system: 2008/C13*, LoVo/LoVo-OXP, LoVo MDR; assay: MTT cytotoxicity, comparison over the Table 2 cell lines; type: cell-based, human; details: 2008 ovarian and LoVo colon sensitive cells
Description: as §3, with “After” for “Briefly, depending upon the growth characteristics of the cell line, 3-8×10^3 cells well^−1, were seeded in 96-well microplates in growth medium (100 μL) and then incubated at 37° C. in a 5% carbon dioxide atmosphere. After”
as §4

| SMILES | Average tumor weight (mean ± SD, g) [1] | Inhibition of tumor growth (%) [1] | IC50 [2] [µM] | R.F. (resistance factor) [2] | R.F. (resistance factor) [3] | IC50 [3] [µM] | IC50 [4] [µM] | IC50 (LoVo colon cancer cells) [µM] | R.F. (resistance factor) [5] | IC50 [5] [µM] | IC50 (A375) [µM] | IC50 (HCT-15) [µM] | IC50 (MCF-7) [µM] | IC50 (SW480) [µM] | IC50 (DLD-1) [µM] | IC50 (A431) [µM] | average cytotoxic activity compared with reference drugs [6] | cytotoxic activity towards sensitive lines compared with reference drugs [7] |
| --- | --- | --- | --- | --- | --- | --- | --- | --- | --- | --- | --- | --- | --- | --- | --- | --- | --- | --- |
| N.N.[Cl][Pt][Cl] [cisplatin, cis-diamminedichloroplatinum(II), reference compound] | 0.199 ± 0.10** g | 75% and 74.66% | 23.7 ± 2.42 | 10.5 | 1.7 | 13.1 ± 2.47 | 2.26 ± 1.06 | 7.63 ± 1.53 | 1.1 | 7.53 ± 0.98 | 2.06 ± 1.01 | 15.5 ± 2.48 | 8.37 ± 2.96 | 7.67 ± 1.34 | 8.01 ± 2.22 | 1.96 ± 0.84 |  |  |
| O=C1[O][Pt]2([NH]C3CCC(CC3)[NH]2)[O]C(=O)C12CCC2 [Compound 6, [SP-4-2-(cis)]-(1,4-cyclohexanediamine-N,N′)[cyclobutane-1,1-dicarboxylate-O,O′]platinum] |  |  |  |  |  |  |  |  |  |  |  |  |  |  |  |  | lower than oxaliplatin and cisplatin | less effective than oxaliplatin and cisplatin |
| O=C1[O][Pt]2([O]C(=O)C(Cl)Cl)([O]C(=O)C(Cl)Cl)([NH]C3CCC(CC3)[NH]2)[O]C1=O [Compound 8, (OC-6-33)-[ethanedioato(2)-O,O′](cis-1,4-cyclohexanediamine-N,N′)bisdichloroacetateplatinum] |  |  | 9.12 ± 2.79 | 0.8 | 1.2 | 11.1 ± 3.05 | 11.1 ± 3.28 | 9.08 ± 2.16 | 1.3 | 11.9 ± 3.33 | 4.99 ± 1.15 | 13.7 ± 3.81 | 12.6 ± 2.47 | 10.6 ± 2.01 | 8.26 ± 3.24 | 7.41 ± 2.11 |  | lower than cisplatin and oxaliplatin in ovarian sensitive cancer cells, similar than cisplatin against colon sensitive cells |

Source: patent publication US9220705B2, “Method of treating colorectal cancer” (priority 2013, dated 2015)
